Data: publication PMC3230598, “Structural Studies of β-Carbonic Anhydrase from the Green Alga Coccomyxa: Inhibitor Complexes with Anions and Acetazolamide” (PLoS ONE, 2011)

B1: β-carbonic anhydrase from Coccomyxa sp. (enzyme, UniProt Q96554 1-227, looked up)
chain: MSAKDTADLSPLLEANRKWADECAAKDSTYFSKVAGSQAPEYLYIGCADSRVSPAQLFNMAPGEVFVQRNVGNLVSNKDLNCMSCLEYTVDHLKIKHILVCGHYNCGACKAGLVWHPKTAGVTNLWISDVREVRDKNAAKLHGLSADDAWDKMVELNVEAQVFNVCASPIVQAAWARGQPLSVHGIVYTPGTGLVKELIKPITGMEDAGALLRADLKQHCFFSESLA
notes: β-carbonic anhydrase of Coccomyxa sp., 227 amino acids, GenBank AAC33484.1; Met-1 to Asp-5 not seen in the electron density, models hold residues 6-227; One zinc ion per monomer; crystallised with acetazolamide, phosphate, thiocyanate, azide or iodide; also called Co-CA; Coccomyxa β-CA; source: E. coli, over-expressed, purified (amylose-resin column, Q-Sepharose Fast Flow)

Columns and labels:
[1] = target: T1, Co-CA (Coccomyxa β-CA) (Coccomyxa sp. PA, UniProt Q96554); assay: X-ray crystal structure of co-crystal, […] Å; type: binding; conditions: 15 mM NaSCN, 1.8 M NaKPO4 pH 7.2; N bound to active-site zinc (2.0 Å); also at dimer interface
T1 construct: zinc enzyme, homotetramer (dimer of dimers); residues 6-227 modelled

[2] = target: the molecule itself; assay: crystal structure; Co-CA at ~35 mg/ml in 10 mM Tris-HCl pH 7.4, hanging drop at 18°C, 1.6-2.3 M Na,KPO4 pH 7.2, with acetazolamide, phosphate, thiocyanate, azide or iodide; space group P43212; one dimer in the asymmetric unit, tetramer by a crystallographic 2-fold

Row | Molecule | X-ray crystal structure of co-crystal, 2.5 Å [1] | stoichiometry N [2]
1 | N#CS [SCN, thiocyanate] | Azide and thiocyanate ions in the active site of Co-CA were clearly defined | 
2 | B1 |  | 4
